From ChEMBL document CHEMBL4765450, “The components and activities analysis of a novel anticoagulant candidate dHG-5” (Eur J Med Chem, 2020) come the findings set out here.

The target in test [1] is Prothrombin (Homo sapiens) (UniProt P00734). Nature of the test: Inhibition of factor 2a (unknown origin) at IC50 preincubated for 1 min followed by chromogenic substrate addition and measured for 2 mins. The settings on record: time 3.0 min.
For test [2] the target is unchanged. Nature of the test: Inhibition of factor 2a (unknown origin) at IC50 preincubated for 1 min followed by chromogenic substrate addition and measured for 2 mins in presence of AT-III. Conditions: time 3.0 min.
Test [3] concerns the target Coagulation factor X (Homo sapiens) (UniProt P00742). Description: Inhibition of factor 10a (unknown origin) at IC50 preincubated for 1 min followed by chromogenic substrate addition and measured for 2 mins. The settings on record: time 3.0 min.
Test [4] addresses T1, Coagulation factor IX/VIII (Homo sapiens) (UniProt P00740+P00451). Description: Inhibition of human citrated plasma iXase (factor 8a-factor 9a complex) assessed as activity potency of oligosaccharides multiplied by the percentage of oligosaccharides in dHG-5 preincubated for 2 mins followed by factor 10 addition and measured after 1 min by FXa chromogenic substrate SXa-11 based assay relative to dHG-5. In kind it is protein-complex assay. Conditions: time 3.0 min.

Test [5] deals with T2, Coagulation factor XII (Homo sapiens) (UniProt P00748).
T2 sequence (whole entry): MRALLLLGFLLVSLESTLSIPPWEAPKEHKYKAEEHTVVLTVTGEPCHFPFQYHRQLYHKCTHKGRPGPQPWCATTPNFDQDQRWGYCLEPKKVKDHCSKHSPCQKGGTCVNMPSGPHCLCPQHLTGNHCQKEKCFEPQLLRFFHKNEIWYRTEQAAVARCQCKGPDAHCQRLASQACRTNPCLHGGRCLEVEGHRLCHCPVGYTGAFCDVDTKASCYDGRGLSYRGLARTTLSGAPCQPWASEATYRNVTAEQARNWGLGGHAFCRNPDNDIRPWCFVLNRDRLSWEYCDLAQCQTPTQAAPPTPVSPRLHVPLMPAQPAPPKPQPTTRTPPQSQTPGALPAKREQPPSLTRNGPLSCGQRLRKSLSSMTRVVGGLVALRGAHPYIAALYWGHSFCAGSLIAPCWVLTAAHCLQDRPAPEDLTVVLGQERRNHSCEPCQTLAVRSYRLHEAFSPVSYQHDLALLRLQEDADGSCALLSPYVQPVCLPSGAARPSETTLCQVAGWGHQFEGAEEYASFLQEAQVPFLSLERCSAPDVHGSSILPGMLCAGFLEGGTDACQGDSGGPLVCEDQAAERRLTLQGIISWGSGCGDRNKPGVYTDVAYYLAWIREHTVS
Description: Inhibition of factor 12a (unknown origin) at IC50 using kallikrein chromogenic substrate preincubated for 1 min followed by chromogenic substrate addition and measured for 2 mins in presence of AT-III. Conditions: time 3.0 min.

In test [6] the test system is Plasma. Description: Anticoagulation activity in human plasma assessed as drug level causing 20 times doubling of APTT preincubated for 2 mins followed by APTT reagent and measured after 3 mins by coagulometric method relative to dHG-5. In kind it is functional. Conditions: time 5 min.
Test [7] addresses T1, Coagulation factor IX/VIII (Homo sapiens). Nature of the test: Inhibition of human citrated plasma iXase (factor 8a-factor 9a complex) preincubated for 2 mins followed by factor 10 addition and measured after 1 min by FXa chromogenic substrate SXa-11 based assay relative to dHG-5. It counts as protein-complex assay. The settings on record: time 3.0 min.
Test [8] has as its target Prothrombin (Homo sapiens) (UniProt P00734). Nature of the test: Inhibition of factor 2a (unknown origin) at IC90 preincubated for 1 min followed by chromogenic substrate addition and measured for 2 mins in presence of AT-III. The settings on record: time 3.0 min.
The target of test [9] is Coagulation factor X (Homo sapiens) (UniProt P00742). Nature of the test: Inhibition of factor 10a (unknown origin) at IC50 preincubated for 1 min followed by chromogenic substrate addition and measured for 2 mins in presence of AT-III. Conditions: time 3.0 min.
Coagulation factor X (Homo sapiens), sequence (P00742 41-179 limits assumed): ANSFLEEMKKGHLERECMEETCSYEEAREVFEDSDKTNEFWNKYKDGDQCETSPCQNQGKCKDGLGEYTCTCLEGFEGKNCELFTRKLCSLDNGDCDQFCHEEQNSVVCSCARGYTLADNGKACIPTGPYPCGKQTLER
Coagulation factor X (Homo sapiens), sequence (P00742 235-488 limits assumed): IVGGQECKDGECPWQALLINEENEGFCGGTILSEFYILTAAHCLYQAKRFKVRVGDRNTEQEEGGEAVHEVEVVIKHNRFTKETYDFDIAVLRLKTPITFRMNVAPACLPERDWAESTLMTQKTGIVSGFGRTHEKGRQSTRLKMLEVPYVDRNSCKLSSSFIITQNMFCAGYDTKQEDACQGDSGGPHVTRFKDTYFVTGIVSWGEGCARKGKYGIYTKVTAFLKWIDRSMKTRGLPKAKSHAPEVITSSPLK
Test [10] concerns the target T3, Coagulation factor VII (Homo sapiens) (UniProt P08709).
T3 sequence (whole entry): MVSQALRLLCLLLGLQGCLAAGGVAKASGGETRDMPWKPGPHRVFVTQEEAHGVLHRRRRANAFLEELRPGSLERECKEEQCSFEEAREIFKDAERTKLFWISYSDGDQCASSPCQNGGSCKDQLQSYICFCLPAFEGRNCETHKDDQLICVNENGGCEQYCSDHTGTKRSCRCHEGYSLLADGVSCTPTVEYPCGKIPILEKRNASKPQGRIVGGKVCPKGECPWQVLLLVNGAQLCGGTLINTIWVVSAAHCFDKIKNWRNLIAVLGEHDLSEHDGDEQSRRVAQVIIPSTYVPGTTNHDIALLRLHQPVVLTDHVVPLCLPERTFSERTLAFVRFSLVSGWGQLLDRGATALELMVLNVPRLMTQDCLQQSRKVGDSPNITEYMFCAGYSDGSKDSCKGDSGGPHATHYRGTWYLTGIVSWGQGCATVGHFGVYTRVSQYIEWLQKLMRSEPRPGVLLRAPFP
Description: Inhibition of factor 7a (unknown origin) at IC50 using pefachrome factor VIIa as substrate preincubated for 1 min followed by chromogenic substrate addition and measured for 2 mins. Conditions: time 3.0 min.

The target of test [11] is Coagulation factor XI (Homo sapiens) (UniProt P03951). Nature of the test: Inhibition of factor 11a (unknown origin) at IC90 using S-2366 as substrate preincubated for 1 min followed by chromogenic substrate addition and measured for 2 mins in presence of AT-III. Conditions: time 3.0 min.
Coagulation factor XI (Homo sapiens), sequence (P03951 19-387 limits assumed): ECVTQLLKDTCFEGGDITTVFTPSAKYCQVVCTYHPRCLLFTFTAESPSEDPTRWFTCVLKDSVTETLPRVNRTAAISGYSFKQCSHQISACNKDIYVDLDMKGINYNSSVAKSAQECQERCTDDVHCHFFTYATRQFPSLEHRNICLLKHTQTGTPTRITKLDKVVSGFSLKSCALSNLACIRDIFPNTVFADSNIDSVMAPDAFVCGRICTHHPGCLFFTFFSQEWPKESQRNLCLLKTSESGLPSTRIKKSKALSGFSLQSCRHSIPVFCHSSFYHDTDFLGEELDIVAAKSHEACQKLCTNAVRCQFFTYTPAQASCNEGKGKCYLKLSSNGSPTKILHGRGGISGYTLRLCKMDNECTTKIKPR
Coagulation factor XI (Homo sapiens), sequence (P03951 388-625 limits assumed): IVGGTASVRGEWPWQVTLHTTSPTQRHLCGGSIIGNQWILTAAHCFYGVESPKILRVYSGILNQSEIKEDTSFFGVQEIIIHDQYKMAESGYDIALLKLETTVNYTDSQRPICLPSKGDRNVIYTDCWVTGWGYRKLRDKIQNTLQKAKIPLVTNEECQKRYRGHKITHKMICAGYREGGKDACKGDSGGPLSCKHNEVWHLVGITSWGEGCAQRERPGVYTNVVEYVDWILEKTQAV
Test [12] addresses Coagulation factor X (Homo sapiens) (UniProt P00742). Nature of the test: Inhibition of factor 10a (unknown origin) at IC90 preincubated for 1 min followed by chromogenic substrate addition and measured for 2 mins in presence of AT-III relative to control. Conditions: time 3.0 min.
Test [13] has as its system Plasma. Description: Anticoagulation activity in human plasma assessed as drug level causing 20 times doubling of APTT by measuring activity potency of oligosaccharides multiplied by the percentage of oligosaccharides in dHG-5 preincubated for 2 mins followed by APTT reagent and measured after 3 mins by coagulometric method relative to dHG-5. It counts as functional. Conditions: time 5 min.

For test [14], the system named is Rattus norvegicus. Nature of the test: Antithrombotic activity in thromboplastin and stasis-induced Sprague-Dawley rat deep venous thrombosis model assessed as reduction in venous thrombosis at 3.64 mg/kg, sc administered 1 hr prior to thromboplastin addition for 20 secs followed by establishment of stasis for 20 mins relative to dHG-5. The settings on record: time 80.33 min, 1.339 h. In kind it is functional.

For test [15], the system named is Rattus norvegicus. Nature of the test: Antithrombotic activity in thromboplastin and stasis-induced Sprague-Dawley rat deep venous thrombosis model assessed as reduction in venous thrombosis by measuring activity potency of oligosaccharides multiplied by the percentage of oligosaccharides in dHG-5 at 3.64 mg/kg, sc administered 1 hr prior to thromboplastin addition for 20 secs followed by establishment of stasis for 20 mins relative …. It counts as functional. The settings on record: time 80.33 min, 1.339 h.

Test [16] addresses T4, Coagulation factor IX (Homo sapiens, UniProt P00740). Nature of the test: Inhibition of factor 9a (unknown origin) binding to immobilized biotinylated oHG-11 by biolayer interferometry relative to dHG-5. (Biolayer interferometry detects binding as a change in optical thickness at a sensor tip.)
In test [17] the target is Coagulation factor XI (Homo sapiens) (UniProt P03951). Description: Inhibition of factor 11a (unknown origin) at IC50 using S-2366 as substrate preincubated for 1 min followed by chromogenic substrate addition and measured for 2 mins in presence of AT-III. The settings on record: time 3.0 min.
Test [18] deals with T2, Coagulation factor XII (Homo sapiens). Description: Inhibition of factor 12a (unknown origin) at IC50 using kallikrein chromogenic substrate preincubated for 1 min followed by chromogenic substrate addition and measured for 2 mins. Conditions: time 3.0 min.
Test [19] deals with Coagulation factor XI (Homo sapiens) (UniProt P03951). Description: Inhibition of factor 11a (unknown origin) at IC50 using S-2366 as substrate preincubated for 1 min followed by chromogenic substrate addition and measured for 2 mins. The settings on record: time 3.0 min.
The target of test [20] is T4, Coagulation factor IX. Nature of the test: Inhibition of factor 9a (unknown origin) binding to immobilized biotinylated oHG-11 assessed as activity potency of oligosaccharides multiplied by the percentage of oligosaccharides in dHG-5 by biolayer interferometry relative to dHG-5.
The target in test [21] is T3, Coagulation factor VII (Homo sapiens). Description: Inhibition of factor 7a (unknown origin) at IC50 using pefachrome factor VIIa as substrate preincubated for 1 min followed by chromogenic substrate addition and measured for 2 mins in presence of AT-III. Conditions: time 3.0 min.

Calls of active or inactive are those of the source. No cut-off for these calls is given here.

T4 sequence (P00740 47-191 limits assumed): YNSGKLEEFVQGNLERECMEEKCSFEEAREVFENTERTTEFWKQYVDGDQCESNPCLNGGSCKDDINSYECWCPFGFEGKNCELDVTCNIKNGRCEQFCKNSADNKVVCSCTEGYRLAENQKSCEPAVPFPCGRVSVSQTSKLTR
T4 sequence (P00740 227-461 limits assumed): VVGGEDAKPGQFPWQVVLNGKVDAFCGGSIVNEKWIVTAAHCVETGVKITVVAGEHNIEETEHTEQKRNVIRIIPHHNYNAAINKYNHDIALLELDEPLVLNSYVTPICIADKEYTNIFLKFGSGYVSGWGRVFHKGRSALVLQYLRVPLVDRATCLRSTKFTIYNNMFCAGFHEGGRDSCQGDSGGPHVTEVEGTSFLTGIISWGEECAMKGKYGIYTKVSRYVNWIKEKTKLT

On to `CC(=O)N[C@H]1[C@H](O[C@@H]([C@H](O[C@@H]2O[C@@H](C)[C@@H](OS(=O)(=O)[O-])[C@@H](O)[C@@H]2OS(=O)(=O)O)[C@@H](O)CO)[C@H](O)C(=O)[O-])O[C@H](COS(=O)(=O)[O-])[C@H](OS(=O)(=O)[O-])[C@@H]1O[C@@H]1O[C@H](C(=O)[O-])[C@@H](O[C@@H]2O[C@H](COS(=O)(=O)[O-])[C@H](OS(=O)(=O)[O-])[C@H](O[C@@H]3O[C@H](C(=O)[O-])[C@@H](O[C@@H]4O[C@H](COS(=O)(=O)[O-])[C@H](OS(=O)(=O)[O-])[C@H](O[C@@H]5OC(C(=O)[O-])=C[C@H](O[C@@H]6O[C@@H](C)[C@@H](OS(=O)(=O)[O-])[C@@H](OS(=O)(=O)O)[C@@H]6O)[C@H]5O)[C@H]4NC(C)=O)[C@H](O[C@@H]4O[C@@H](C)[C@@H](OS(=O)(=O)[O-])[C@@H](O)[C@@H]4OS(=O)(=O)O)[C@H]3O)[C@H]2NC(C)=O)[C@H](O[C@@H]2O[C@@H](C)[C@@H](OS(=O)(=O)[O-])[C@@H](O)[C@@H]2OS(=O)(=O)O)[C@H]1O.[Na+].[Na+].[Na+].[Na+].[Na+].[Na+].[Na+].[Na+].[Na+].[Na+].[Na+].[Na+].[Na+].[Na+]`, for which the inhibition result in test [1], in test [2], in [3], in test [5], in [9] and in test [17] was “inactive” in each case. The inhibition result in [18], in test [19] and in [21] was “inactive” in each case. In addition, the Ratio in test [4] is 5.02 U; in the test on Plasma [6], 28.01 U; in test [7] it was 28.6 U; with Plasma [13] it was 4.92 U; with Rattus norvegicus [14], 48.6 U; in the test on Rattus norvegicus [15], 8.55 U. In addition, the Ratio is 20.9 U at Coagulation factor IX [16] and 3.66 U on Coagulation factor IX [20]. The inhibition result in test [8] and in test [11] was “Active” each time. For the same compound, in test [10], the “inhibition (active/not active)” value was “inactive”. Moreover, the inhibition (usually the share of the control response that was lost under treatment) in test [12] is 14.2%.
